Source: patent publication US12240840B2, “Amide-substituted heterocyclic compounds for the treatment of conditions related to the modulation of IL-12, IL-23 and/or IFN-alpha” (BRISTOL-MYERS SQUIBB COMPANY, priority 2018, dated 2025)

System: IFNα-induced pSTAT5 (pY694) in CD3 positive cells of human whole blood
Test: IFNα-Induced STAT Phosphorylation in Human Whole Blood
Assay type: cell-based
Settings: Homo sapiens, 1 h compound incubation, 1000 U/mL recombinant human IFNα A/D for 15 min, pSTAT5 in CD3 positive population, read-out: Human WB IFNα-Induced Stat Phosph. (IC50)
Protocol: IFNα-Induced STAT Phosphorylation in Human Whole Blood
After an hour long incubation with compound, human whole blood (drawn with either EDTA or ACD-A as anti-coagulant) was stimulated with 1000 U/mL recombinant human IFNα A/D (R&D Systems 11200-2) for 15 min. The stimulation was stopped by adding Fix/Lyse buffer (BD 558049). Cells were stained with a CD3 FITC antibody (BD 555916), washed, and permeabilized on ice using Perm III buffer (BD 558050). Cells were then stained with an Alexa-Fluor 647 pSTAT5 (pY694) antibody (BD 612599) for 30 min prior to analysis on the FACS Canto II. The amount of pSTAT5 expression was quantitated by median fluorescence intensity after gating on the CD3 positive population.
IFNα-Induced STAT Phosphorylation in Human Whole Blood Inhibition Data ND—no data available

| Compound | IC50 [nM] |
| --- | --- |
| [2H]C([2H])([2H])NC(=O)c1nnc(NC(=O)C2CC2)cc1Nc1cccc(-n2cc(CN3CCS(=O)(=O)CC3)nn2)c1OC [Example 1, 6-(cyclopropanecarboxamido)-4-((3-(4-((1,1-dioxidothiomorpholino)methyl)-1H-1,2,3-triazol-1-yl)-2-methoxyphenyl)amino)-N-(trideuteromethyl)pyridazine-3-carboxamide] | 2800 |
| [2H]C([2H])([2H])NC(=O)c1nnc(NC(=O)C2CC2)cc1Nc1cccc(-n2cc(CN3CCOCC3)nn2)c1OC [Example 2] | 650 |
| [2H]C([2H])([2H])NC(=O)c1nnc(NC(=O)C2CC2)cc1Nc1cccc(-n2cc(CO)nn2)c1OC [Example 3] | 980 |
| [2H]C([2H])([2H])NC(=O)c1nnc(NC(=O)C2CC2)cc1Nc1cccc(-n2cc(CN3CCN(S(C)(=O)=O)CC3)nn2)c1OC [Example 4] | 660 |
| [2H]C([2H])([2H])NC(=O)c1nnc(NC(=O)C2CC2)cc1Nc1cccc(-n2cc(CNC)nn2)c1OC [Example 5] | 3300 |
| [2H]C([2H])([2H])NC(=O)c1nnc(NC(=O)C2CC2)cc1Nc1cccc(-c2noc(CN)n2)c1OC [Example 6, 4-((3-(5-(aminomethyl)-1,2,4-oxadiazol-3-yl)-2-methoxyphenyl)amino)-6-(cyclopropanecarboxamido)-N-trideuteromethylpyridazine-3-carboxamide] | 110 |
| [2H]C([2H])([2H])NC(=O)c1nnc(NC(=O)C2CC2)cc1Nc1cccc(-c2noc(CN3CCOCC3)n2)c1OC [Example 7] | 24 |
| COc1c(Nc2cc(NC(=O)C3CC3)nnc2C(N)=O)cccc1-c1noc(CN2CCOCC2)n1 [Example 8] | 21 |
| COc1c(Nc2cc(NC(=O)C3CC3)nnc2C(N)=O)cccc1-c1noc(CN(C)S(=O)(=O)C2CC2)n1 [Example 9] | 16 |
| COc1c(Nc2cc(NC(=O)C3CC3)nnc2C(N)=O)cccc1-c1noc([C@@H]2C[C@@H](O)CN2S(C)(=O)=O)n1 [Example 11] | 21 |
| [2H]C([2H])([2H])NC(=O)c1nnc(NC(=O)C2CC2)cc1Nc1cccc(-c2noc(CN3CCCCS3(=O)=O)n2)c1OC [Example 12] | 11 |
| COc1c(Nc2cc(NC(=O)C3CC3)nnc2C(N)=O)cccc1-c1noc(CNS(=O)(=O)c2ccccc2)n1 [Example 13] | 24 |
| [2H]C([2H])([2H])NC(=O)c1nnc(NC(=O)C2CC2)cc1Nc1cccc(-c2noc(CN3CCN(C(=O)OC)CC3)n2)c1OC [Example 14] | 50 |
| [2H]C([2H])([2H])NC(=O)c1nnc(NC(=O)C2CC2)cc1Nc1cccc(-c2noc(CN3CCN(S(C)(=O)=O)CC3)n2)c1OC [Example 15] | 30 |
| [2H]C([2H])([2H])NC(=O)c1nnc(NC(=O)C2CC2)cc1Nc1cccc(-c2noc(C(=O)N3CCOCC3)n2)c1OC [Example 16] | 560 |
| [2H]C([2H])([2H])NC(=O)c1nnc(NC(=O)C2CC2)cc1Nc1cccc(-c2noc(C(=O)N(C)C)n2)c1OC [Example 17] | 490 |
| [2H]C([2H])([2H])NC(=O)c1nnc(NC(=O)C2CC2)cc1Nc1cccc(-c2noc(C(=O)NCCOC)n2)c1OC [Example 19] | 250 |
| [2H]C([2H])([2H])NC(=O)c1nnc(NC(=O)C2CC2)cc1Nc1cccc(-c2noc(C(=O)N3CCS(=O)(=O)CC3)n2)c1OC [Example 20] | 1500 |
| [2H]C([2H])([2H])NC(=O)c1nnc(NC(=O)C2CC2)cc1Nc1cccc(-c2noc(C(=O)NCCC3CCCN3C)n2)c1OC (stereo not shown) [Example 21] | 22 |
| [2H]C([2H])([2H])NC(=O)c1nnc(NC(=O)C2CC2)cc1Nc1cccc(-c2noc(CC(=O)N3CCOCC3)n2)c1OC [Example 23] | 60 |

| Compound | IC50 [nM] |
| --- | --- |
| [2H]C([2H])([2H])NC(=O)c1nnc(NC(=O)C2CC2)cc1Nc1cccc(-c2noc(C(=O)NC3CCC(N(C)C)CC3)n2)c1OC (stereo not shown) [Example 24] | 240 |
| [2H]C([2H])([2H])NC(=O)c1nnc(NC(=O)C2CC2)cc1Nc1cccc(-c2noc(CCC(=O)N3CCOCC3)n2)c1OC [Example 25] | 430 |
| [2H]C([2H])([2H])NC(=O)c1nnc(NC(=O)C2CC2)cc1Nc1cccc(-c2noc(CCC(=O)NCCC3CCCN3C)n2)c1OC (stereo not shown) [Example 26] | 3900 |
| [2H]C([2H])([2H])NC(=O)c1nnc(NC(=O)C2CC2)cc1Nc1cccc(-c2noc(C(C)(C)C(=O)N3CCOCC3)n2)c1OC [Example 27] | 2010 |
| [2H]C([2H])([2H])NC(=O)c1nnc(NC(=O)C2CC2)cc1Nc1cccc(-c2noc(C3(C(=O)N4CCOCC4)CC3)n2)c1OC [Example 28] | 210 |
| [2H]C([2H])([2H])NC(=O)c1nnc(NC(=O)C2CC2)cc1Nc1cccc(-c2noc(C(C)C(=O)N3CCOCC3)n2)c1OC (stereo not shown) [Example 29] | 130 |
| [2H]C([2H])([2H])NC(=O)c1nnc(NC(=O)C2CC2)cc1Nc1cccc(-c2noc(CNC(=O)OC)n2)c1OC [Example 30] | 1380 |
| [2H]C([2H])([2H])NC(=O)c1nnc(NC(=O)C2CC2)cc1Nc1cccc(-c2noc(CNC(C)=O)n2)c1OC [Example 31] | 380 |
| [2H]C([2H])([2H])NC(=O)c1nnc(NC(=O)C2CC2)cc1Nc1cccc(-c2noc(CNS(C)(=O)=O)n2)c1OC [Example 32] | 80 |
| [2H]C([2H])([2H])NC(=O)c1nnc(NC(=O)C2CC2)cc1Nc1cccc(-c2noc(CN3CCN(C(=O)OC(C)(C)C)CC3)n2)c1OC [Example 34] | 1010 |
| [2H]C([2H])([2H])NC(=O)c1nnc(NC(=O)C2CC2)cc1Nc1cccc(-c2noc(CN3CCNCC3)n2)c1OC [Example 35] | 120 |
| COc1c(Nc2cc(NC(=O)C3CC3)nnc2C(N)=O)cccc1-c1noc(CC(=O)N2CCOCC2)n1 [Example 36] | 30 |
| COc1c(Nc2cc(NC(=O)C3CC3)nnc2C(N)=O)cccc1-c1noc(C(=O)NCCC2CCCN2C)n1 (stereo not shown) [Example 37] | 18 |
| COc1c(Nc2cc(NC(=O)C3CC3)nnc2C(N)=O)cccc1-c1noc(CNS(C)(=O)=O)n1 [Example 38] | 30 |
| COC(=O)N1CCN(Cc2nc(-c3cccc(Nc4cc(NC(=O)C5CC5)nnc4C(N)=O)c3OC)no2)CC1 [Example 39] | 23 |
| COc1c(Nc2cc(NC(=O)C3CC3)nnc2C(N)=O)cccc1-c1noc(CN2CCN(S(C)(=O)=O)CC2)n1 [Example 40] | 12 |
| [2H]C([2H])([2H])NC(=O)c1nnc(NC(=O)C2CC2)cc1Nc1cccc(-c2noc(C(CC)C(=O)NCCOC)n2)c1OC (stereo not shown) [Example 41] | 60 |
| [2H]C([2H])([2H])NC(=O)c1nnc(NC(=O)C2CC2)cc1Nc1cccc(-c2noc(C(CCC)C(=O)N3CCOCC3)n2)c1OC (stereo not shown) [Example 42] | 230 |
| [2H]C([2H])([2H])NC(=O)c1nnc(NC(=O)C2CC2)cc1Nc1cccc(-c2noc(C(CCC)C(=O)NCCOC)n2)c1OC (stereo not shown) [Example 43] | 170 |
| COc1c(Nc2cc(NC(=O)C3CC3)nnc2C(N)=O)cccc1-c1noc(CN(C)S(C)(=O)=O)n1 [Example 44] | 9 |

| Compound | IC50 [nM] |
| --- | --- |
| [2H]C([2H])([2H])NC(=O)c1nnc(NC(=O)C2CC2)cc1Nc1cccc(-c2noc(C(CC)C(=O)N3CCOCC3)n2)c1OC (stereo not shown) [Example 45] | 160 |
| COc1c(Nc2cc(NC(=O)C3CC3)nnc2C(N)=O)cccc1-c1noc([C@H](C)NS(C)(=O)=O)n1 [Example 46] | 140 |
| COc1c(Nc2cc(NC(=O)C3CC3)nnc2C(N)=O)cccc1-c1noc([C@@H](C)NS(C)(=O)=O)n1 [Example 47] | 140 |
| CCS(=O)(=O)NCc1nc(-c2cccc(Nc3cc(NC(=O)C4CC4)nnc3C(N)=O)c2OC)no1 [Example 48] | 25 |
| COc1c(Nc2cc(NC(=O)C3CC3)nnc2C(N)=O)cccc1-c1noc(CNS(=O)(=O)C2CC2)n1 [Example 49] | 50 |
| COc1c(Nc2cc(NC(=O)C3CC3)nnc2C(N)=O)cccc1-c1noc(CNS(=O)(=O)C(C)C)n1 [Example 50] | 70 |
| COc1c(Nc2cc(NC(=O)C3CC3)nnc2C(N)=O)cccc1-c1noc([C@H](C)N(C)S(C)(=O)=O)n1 [Example 51] | 160 |
| COc1c(Nc2cc(NC(=O)C3CC3)nnc2C(N)=O)cccc1-c1noc([C@@H](C)N(C)S(C)(=O)=O)n1 [Example 52] | 90 |
| COc1c(Nc2cc(NC(=O)C3CC3)nnc2C(N)=O)cccc1-c1noc([C@H]2CCCN2S(C)(=O)=O)n1 [Example 53] | 210 |
| COc1c(Nc2cc(NC(=O)C3CC3)nnc2C(N)=O)cccc1-c1noc(CN(C)S(=O)(=O)CC(F)(F)F)n1 [Example 55] | 40 |
| CCC(C(=O)NCCOC)c1nc(-c2cccc(Nc3cc(NC(=O)C4CC4)nnc3C(N)=O)c2OC)no1 (stereo not shown) [Example 56] | 120 |
| CCS(=O)(=O)N(C)Cc1nc(-c2cccc(Nc3cc(NC(=O)C4CC4)nnc3C(N)=O)c2OC)no1 [Example 57] | 9 |
| COc1c(Nc2cc(NC(=O)C3CC3)nnc2C(N)=O)cccc1-c1noc(CN(C)S(=O)(=O)C(C)C)n1 [Example 58] | 11 |
| CCN(Cc1nc(-c2cccc(Nc3cc(NC(=O)C4CC4)nnc3C(N)=O)c2OC)no1)S(C)(=O)=O [Example 59] | 13 |
| COc1c(Nc2cc(NC(=O)C3CC3)nnc2C(N)=O)cccc1-c1noc(CN(C2CC2)S(C)(=O)=O)n1 [Example 60] | 23 |
| COc1c(Nc2cc(NC(=O)C3CC3)nnc2C(N)=O)cccc1-c1noc(CN(C(C)C)S(C)(=O)=O)n1 [Example 61] | 60 |
| COc1c(Nc2cc(NC(=O)C3CC3)nnc2C(N)=O)cccc1-c1noc([C@H]2C[C@@H](O)CN2S(C)(=O)=O)n1 [Example 62] | 80 |
| COc1c(Nc2cc(NC(=O)C3CC3)nnc2C(N)=O)cccc1-c1noc(CN(C)C)n1 [Example 63] | 30 |
